In patent US20080096894A1, “Anti-Bacterial Compounds” (ASTON UNIVERSITY, priority 2005, published 2008):
≈ marks a conversion by molar mass, not a printed value. Read-outs that look alike come from different tables or passages of the source.

Legend:
Experiment in all cases: MIC, agar dilution, multipoint inoculator
[1] = system: MRSA; assay type: cell-based, methicillin-resistant Staphylococcus aureus
Method: (§1) This activity was measured using a multipoint inoculator method as follows. The MIC for each compound was measured using an agar dilution method (Onda, H., et al., Int. J. Antimicrob. Agents. 18, 263 (2001)) (Mueller Hinton agar) by means of a multipoint inoculator delivering 10^4 colony forming units per spot.
‘Staph’ refers to the reference strain of S. aureus (NCTC 6571). A tick in the MRSA column refers to a positive zone against MRSA strain 96-7474, and the MIC range (in μg/ml) which follows is that found against a panel of ten MRSA strains. Where MIC values are given for MRSA, these are stated as a range of values, as testing was carried out on a panel of clinical isolates.

[2] = system: S. aureus; assay type: cell-based, Staphylococcus aureus; details: upper value of MIC reading
Method: as §1

[3] = system: S. epidemisis; assay type: cell-based, Staphylococcus epidermidis; details: upper value of MIC reading
Method: as §1

[4] = system: E. faecalis; assay type: cell-based; details: upper value of MIC reading
Method: as §1

[5] = system: S. haemolyticus; assay type: cell-based; details: S. haemolyticus Isolate 1, upper value of MIC reading
Method: as §1

[6] = system: E. faecium; assay type: cell-based, Enterococcus faecium; details: upper value of MIC reading
Method: as §1

[7] = panel of ten MRSA strains (clinical isolates)
[8] = MRSA Isolate 1, upper value of MIC reading, in µg/mL
[9] = MRSA Isolate 2, upper value of MIC reading, in µg/mL
[10] = MRSA Isolate 3, upper value of MIC reading, in µg/mL
[11] = MRSA Isolate 4, upper value of MIC reading, in µg/mL
[12] = MRSA Isolate 5, upper value of MIC reading, in µg/mL
[13] = MRSA Isolate 6, upper value of MIC reading, in µg/mL
[14] = MRSA Isolate 7, upper value of MIC reading, in µg/mL
[15] = MRSA Isolate 8, upper value of MIC reading, in µg/mL
[16] = MRSA Isolate 9, upper value of MIC reading, in µg/mL
[17] = MRSA Isolate 10, upper value of MIC reading, in µg/mL

Cc1ccccc1C=NN=C(N)c1ccccn1 [Compound 2PYah]
MRSA MIC range [1, 7]: 128 to 256 µg/mL

CCc1ccccc1C=NN=C(N)c1ccccn1 [Compound 2PYai]
MRSA MIC range [1, 7]: 128 to 256 µg/mL

Cc1cccc(C=NN=C(N)c2ccccn2)c1 [Compound 2PYaj]
MRSA MIC range [1, 7]: 128 to 256 µg/mL

NC(=NN=Cc1cc([N+](=O)[O-])ccc1O)c1ccccn1 [Compound 2PYcj]
MIC ([2]; S. aureus Cowan 1): 32 µg/mL (≈ 112 µM) | MIC ([2]; S. aureus NCTC 6571): 16 µg/mL (≈ 56.1 µM) | MIC ([2]; S. aureus NCTC 10788): 16 µg/mL (≈ 56.1 µM) | MIC [1, 8]: 16 | MIC [1, 9]: 16 | MIC [1, 10]: 4 | MIC [1, 11]: 8 | MIC [1, 12]: 16 | MIC [1, 13]: 16 | MIC [1, 14]: 8 | MIC [1, 15]: 4-8 | MIC [1, 16]: 8 | MIC [1, 17]: 8 | MRSA MIC range [1, 7]: 4 to 32 µg/mL | MIC ([3]; S. epidemisis Isolate 1): 256 µg/mL (≈ 897 µM) | MIC ([3]; S. epidemisis NCTC 11047): 256 µg/mL (≈ 897 µM) | MIC ([4]; E. faecalis Isolate 3): 256 µg/mL (≈ 897 µM) | MIC ([4]; E. faecalis Isolate 5): 256 µg/mL (≈ 897 µM) | MIC [5]: 256 µg/mL (≈ 897 µM)

NC(=NN=Cc1cc(Br)cc([N+](=O)[O-])c1O)c1ccccn1 [Compound 2PYcl]
MIC ([2]; S. aureus Cowan 1): 64 µg/mL (≈ 176 µM) | MIC ([2]; S. aureus NCTC 6571): 32 µg/mL (≈ 87.9 µM) | MIC ([2]; S. aureus NCTC 10788): 32 µg/mL (≈ 87.9 µM) | MIC [1, 8]: 64 | MIC [1, 9]: 64 | MIC [1, 10]: 64 | MIC [1, 11]: 32 | MIC [1, 12]: 32 | MIC [1, 13]: 64 | MIC [1, 14]: 64 | MIC [1, 15]: 64 | MIC [1, 16]: 64 | MIC [1, 17]: 64 | MIC ([6]; E. faecium ACTCC 10541): 128 µg/mL (≈ 351 µM) | MIC ([6]; E. faecium NCTC 7171): 256 µg/mL (≈ 703 µM) | MIC ([4]; E. faecalis EBH1): 256 µg/mL (≈ 703 µM) | MIC ([4]; E. faecalis NCTC 5957): 256 µg/mL (≈ 703 µM)

NC(=NN=Cc1c(O)ccc2ccccc12)c1ccccn1 [Compound 2PYdb]
MIC ([2]; S. aureus NCTC 6571): > 256 µg/mL | MIC [1, 10]: >256 | MRSA MIC range [1, 7]: > 256 µg/mL

NC(=NN=Cc1cccc(Cl)c1)c1ccccn1 [Compound 2PYdg]
MRSA MIC range [1, 7]: 64 to 128 µg/mL

CN(C)c1ccc(C=NN=C(N)c2ccccn2)cc1 [Compound 2PYdq]
MRSA MIC range [1, 7]: 128 to 256 µg/mL

NC(=NN=Cc1ccc(O)c(O)c1O)c1ccncc1 [Compound 4PYcb]
MRSA MIC range [1, 7]: 30 to 40 µg/mL

NC(=NN=Cc1cc(O)c(O)cc1O)c1ccncc1 [Compound 4PYcc]
MRSA MIC range [1, 7]: 20 to 30 µg/mL

NC(=NN=Cc1cc([N+](=O)[O-])ccc1O)c1ccncc1 [Compound 4PYcj]
MRSA MIC range [1, 7]: 20 to 30 µg/mL

NC(=NN=Cc1cc(I)cc(I)c1O)c1ccncc1 [Compound 4PYco]
MRSA MIC range [1, 7]: 10 to 20 µg/mL

CC(C)(C)c1cc(C=NN=C(N)c2ccncc2)cc(C(C)(C)C)c1O [Compound 4PYcr]
MIC ([2]; S. aureus NCTC 6571): > 256 µg/mL | MIC [1, 10]: >256 | MRSA MIC range [1, 7]: > 256 µg/mL

N/C(=N\N=C\c1ccccc1Sc1ccc(Cl)cc1)c1ccncc1 [Compound 4PYeh, N^1-[2-(4-chlorothiophenyl)benzylidene]-pyridine-4-carboxamidrazone]
MIC ([2]; Staphylococcus aureus, 18 h, S. aureus Cowan 1, read-out: MIC): 8 µg/mL (≈ 21.8 µM) | MIC ([2]; Staphylococcus aureus, NCTC6571, 18 h, S. aureus NCTC 6571, read-out: MIC): 128 µg/mL (≈ 349 µM) | MIC ([2]; Staphylococcus aureus, NCTC10788, 18 h, S. aureus NCTC 10788, read-out: MIC): 16 µg/mL (≈ 43.6 µM) | MIC ([1]; Staphylococcus aureus, 18 h, MRSA Isolate 1, upper value of MIC reading, read-out: MIC): 16 µg/mL (≈ 43.6 µM) | MIC ([1]; Staphylococcus aureus, 18 h, MRSA Isolate 2, upper value of MIC reading, read-out: MIC): 16 µg/mL (≈ 43.6 µM) | MIC ([1]; Staphylococcus aureus, 18 h, MRSA Isolate 3, upper value of MIC reading, read-out: MIC): 16 µg/mL (≈ 43.6 µM) | MIC ([1]; Staphylococcus aureus, 18 h, MRSA Isolate 4, upper value of MIC reading, read-out: MIC): 16 µg/mL (≈ 43.6 µM) | MIC ([1]; Staphylococcus aureus, 18 h, MRSA Isolate 5, upper value of MIC reading, read-out: MIC): 16 µg/mL (≈ 43.6 µM) | MIC ([1]; Staphylococcus aureus, 18 h, MRSA Isolate 6, upper value of MIC reading, read-out: MIC): 16 µg/mL (≈ 43.6 µM) | MIC ([1]; Staphylococcus aureus, 18 h, MRSA Isolate 7, upper value of MIC reading, read-out: MIC): 64 µg/mL (≈ 174 µM) | MIC ([1]; Staphylococcus aureus, 18 h, MRSA Isolate 8, upper value of MIC reading, read-out: MIC): 32 µg/mL (≈ 87.2 µM) | MIC ([1]; Staphylococcus aureus, 18 h, MRSA Isolate 9, upper value of MIC reading, read-out: MIC): 16 µg/mL (≈ 43.6 µM) | MIC ([1]; Staphylococcus aureus, 18 h, MRSA Isolate 10, upper value of MIC reading, read-out: MIC): 16 µg/mL (≈ 43.6 µM) | MIC ([1]; Staphylococcus aureus, MRSA, 18 h, panel of ten MRSA strains (clinical isolates), read-out: MRSA MIC range): 8 to 64 µg/mL (≈ 21.8 to 174 µM) | MIC ([3]; Staphylococcus epidermidis, 18 h, S. epidemisis Isolate 1, read-out: MIC): 256 µg/mL (≈ 698 µM) | MIC ([3]; Staphylococcus epidermidis, NCTC11047, 18 h, S. epidemisis NCTC 11047, read-out: MIC): 256 µg/mL (≈ 698 µM) | MIC ([5]; Staphylococcus haemolyticus, 18 h, read-out: MIC): 256 µg/mL (≈ 698 µM)

COc1ccc(C=NNc2ccccn2)c(O)c1 [HDcf]
MRSA MIC range [1, 7]: 20 to 30 µg/mL

NC(=NN=Cc1ccc(O)c(O)c1O)c1cnccn1 [PZcb]
MIC ([2]; S. aureus Cowan 1): 256 µg/mL (≈ 937 µM) | MIC ([2]; S. aureus NCTC 6571): 256 µg/mL (≈ 937 µM) | MIC ([2]; S. aureus NCTC 10788): 256 µg/mL (≈ 937 µM) | MIC [1, 8]: 256 | MIC [1, 9]: 256 | MIC [1, 10]: 256 | MIC [1, 11]: 256 | MIC [1, 12]: 256 | MIC [1, 13]: 256 | MIC [1, 14]: 256 | MIC [1, 15]: 256 | MIC [1, 16]: 256 | MIC [1, 17]: 256 | MRSA MIC range [1, 7]: 128 to 256 µg/mL | MIC ([3]; S. epidemisis NCTC 11047): 256 µg/mL (≈ 937 µM) | MIC ([4]; E. faecalis Isolate 2): 256 µg/mL (≈ 937 µM) | MIC ([4]; E. faecalis Isolate 3): 256 µg/mL (≈ 937 µM) | MIC [5]: 256 µg/mL (≈ 937 µM)

NC(=NN=Cc1cc([N+](=O)[O-])ccc1O)c1cnccn1 [PZcj]
MIC ([2]; S. aureus Cowan 1): 256 µg/mL (≈ 894 µM) | MIC ([2]; S. aureus NCTC 6571): 16 µg/mL (≈ 55.9 µM) | MIC ([2]; S. aureus NCTC 10788): 16 µg/mL (≈ 55.9 µM) | MIC [1, 8]: 8 | MIC [1, 9]: 8 | MIC [1, 10]: 4 | MIC [1, 11]: 4 | MIC [1, 12]: 16 | MIC [1, 13]: 16 | MIC [1, 14]: 16 | MIC [1, 15]: 16 | MIC [1, 16]: 16 | MIC [1, 17]: 16 | MRSA MIC range [1, 7]: 4 to 16 µg/mL | MIC ([3]; S. epidemisis Isolate 1): 256 µg/mL (≈ 894 µM) | MIC ([4]; E. faecalis Isolate 3): 256 µg/mL (≈ 894 µM)

CC(C)(C)[Si](C)(C)Oc1ccccc1/C=N/N=C(\N)c1cnccn1 [PZeg]
MRSA MIC range [1, 7]: > 256 µg/mL

NC(=NN=Cc1cc(Br)cc([N+](=O)[O-])c1O)c1ccc2ccccc2n1 [QNcl]
MIC ([2]; S. aureus NCTC 6571): > 256 µg/mL | MIC [1, 9]: 64 | MIC [1, 10]: 64 | MIC [1, 11]: 64 | MIC ([3]; S. epidemisis NCTC 11047): 256 µg/mL (≈ 618 µM) | MIC ([4]; E. faecalis Isolate 2): 256 µg/mL (≈ 618 µM) | MIC ([4]; E. faecalis Isolate 3): 256 µg/mL (≈ 618 µM) | MIC [5]: 256 µg/mL (≈ 618 µM)

O=Cc1cc(Br)cc([N+](=O)[O-])c1O [cl]
MIC ([2]; S. aureus Cowan 1): 32 µg/mL (≈ 130 µM) | MIC ([2]; S. aureus NCTC 6571): 16 µg/mL (≈ 65 µM) | MIC ([2]; S. aureus NCTC 10788): 16 µg/mL (≈ 65 µM) | MIC [1, 8]: 16 | MIC [1, 9]: 16 | MIC [1, 10]: 32 | MIC [1, 11]: 16 | MIC [1, 12]: 16 | MIC [1, 13]: 32 | MIC [1, 14]: 32 | MIC [1, 15]: 32 | MIC [1, 16]: 32
